The record followed here is patent publication US20090291945A1, “CYSTEINE PROTEASE INHIBITORS” (Teijin Pharma Limited, priority 2008, published 2009).

The target of the assay is T1, cathepsin K (Homo sapiens, UniProt P43235).
T1 construct: the active enzyme was obtained as the enzyme fraction by using detergent containing lysis buffer; made in house; host or cells: HEK293T (GenHunter Corporation), transient expression; detergent lysate used as enzyme fraction
T1 sequence (P43235 115-329): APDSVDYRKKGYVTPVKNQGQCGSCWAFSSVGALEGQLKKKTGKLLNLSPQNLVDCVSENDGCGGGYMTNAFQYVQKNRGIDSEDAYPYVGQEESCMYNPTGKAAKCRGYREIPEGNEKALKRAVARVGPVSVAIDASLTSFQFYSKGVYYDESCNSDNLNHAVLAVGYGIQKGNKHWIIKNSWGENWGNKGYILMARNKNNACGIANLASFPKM
Put plainly: Cathepsin K inhibitory activity (fluorescent substrate Z-Leu-Arg-MCA). The class given is biochemical. The conditions noted are these: enzyme expressed in HEK293T; 15 min preincubation, 30 min reaction at room temperature, pH 5.5; read-out: Activity Intensity (cathepsin K inhibitory activity, pIC50 class) (converted). How it is done: Cathepsin K inhibitory activities of the compounds synthesized according to the methods of the above examples were measured.
Cathepsin K used for evaluation of inhibitory activity was transiently expressed in an animal cell HEK293T (made by GenHunter Corporation) and the active enzyme was obtained as the enzyme fraction by using detergent containing lysis buffer.
The enzyme solution A was prepared at 2.1 times final concentration by diluting the enzyme fraction with assay buffer (50 mM sodium acetate, 50 mM sodium chloride, 2 mM DTT, pH 5.5). The test compound solutions B were prepared at 50 times final target concentrations by dimethylsulfoxide (DMSO). As a substrate solution C, a solution of a fluorescent substrate, benzyloxycarbonyl-L-leucyl-L-arginyl-4-methyl-coumaryl-7-amide (Z-Leu-Arg-MCA (Peptide Institute Inc.), was prepared at 10 μM by an assay buffer.
To the enzyme solution A (38.4 μL) were added the test compound solutions B (1.6 μL) and mixed individually. The mixtures were incubated at room temperature for 15 minutes. To the incubated solutions were added the substrate solution C (40 μL) and the mixtures were reacted at room temperature for 30 minutes respectively. The fluorescence intensities of the enzyme reaction solutions were measured at excitation wavelength of 355 nm and measurement wavelength of 460 nm and the enzyme activities were calculated from these fluorescence intensities caused by 7-amino-4-methylcoumarine released. The enzyme activity with using DMSO instead of the test compound solution B was taken as 100% and the inhibitory rates at each concentration of the test compound were calculated. The […] response curve was fitted to the plots. The 50% inhibitory concentration against cathepsin K was calculated from this curve.
Note that the symbols (+, ++, and +++) in this table represent the inhibitory activity values as below. Here, pIC50 is the value representing a negative logarithm of IC50, (−log10(IC50)). IC50 is a 50% inhibitory concentration.
For the compound `CC[C@@H](CNc1ccc(N2CCCCC2)cc1)NC(=O)[C@H](CC(C)(C)F)N[C@@H](c1ccc(-c2ccc(S(C)(=O)=O)cc2)cc1)C(F)(F)F` [Compound 10, (2S)—N-((1S)-1-{[(4-piperidin-1-ylphenyl)amino]methyl}propyl)-2-[((1S)-2,2,2-trifluoro-1-{4-[4-(methylsulfonyl)phenyl]phenyl}ethyl)amino]-4-fluoro-4-methylpentanamide], the IC50 was at most 3.16 nM.

As for `COc1ccc(NC[C@H](C)NC(=O)[C@H](CC(C)C)N[C@@H](c2ccccc2)C(F)(F)F)c(OC)c1` [Compound 70], the IC50 is at most 3.16 nM.

Consider `COc1ccc(NC[C@H](C)NC(=O)[C@H](CC(C)C)N[C@@H](c2ccc(S(C)(=O)=O)cc2)C(F)(F)F)c(OC)c1` [Compound 77], for which the IC50 is 3.16 to 31.6 nM.

Consider `CC[C@@H](CNc1ccc(N2CCOCC2)cc1)NC(=O)[C@H](CC(C)C)N[C@@H](c1ccc(OC(F)F)cc1)C(F)(F)F` [Compound 33], for which the IC50 was at most 3.16 nM.

Take `CC[C@@H](CNc1ccc(OC)cc1OC)NC(=O)[C@@H](N[C@@H](c1ccccc1)C(F)(F)F)[C@@H](C)CC` [Compound 60]: the IC50 is 3.16 to 31.6 nM.

On to `CC[C@@H](CNc1ccc(OCC(N)=O)cc1OC)NC(=O)[C@H](CC(C)(C)F)N[C@@H](c1ccccc1)C(F)(F)F` [Compound 133, (2S)—N-[(1S)-1-({[4-(carbamoylmethoxy)-2-methoxyphenyl]amino}methyl)propyl]-2-[((1S)-2,2,2-trifluoro-1-phenylethyl)amino]-4-fluoro-4-methylpentanamide], for which the IC50 is at most 3.16 nM.

With `CC(C)C[C@H](N[C@@H](c1ccc(S(C)(=O)=O)cc1)C(F)(F)F)C(=O)N[C@@H](C)CNc1ccc(N2CCOCC2)cc1` [Compound 73], the IC50 was at most 3.16 nM.

With `COc1ccc([C@H](N[C@@H](CC(C)C)C(=O)N[C@@H](CCSC)CNc2ccc(OC)cc2OC)C(F)(F)F)cc1` [Compound 67], the IC50 is 3.16 to 31.6 nM.

For `CC[C@@H](CNc1ccc(-n2cccn2)cc1)NC(=O)[C@H](CC(C)C)N[C@@H](c1ccc(OC)nc1)C(F)(F)F` [Compound 48], the IC50 was 31.6 to 10000 nM.

For the compound `COc1ccc([C@H](N[C@@H](CC(C)C)C(=O)N[C@@H](C)CNc2ccc(N3CCOCC3)cc2)C(F)(F)F)cn1` [Compound 75], the IC50 was at most 3.16 nM.

As for `COc1ccc(NC[C@H](C)NC(=O)[C@H](CC(C)C)N[C@@H](c2ccc(=O)[nH]c2)C(F)(F)F)c(OC)c1` [Compound 76], the IC50 was 3.16 to 31.6 nM.

In the case of `CC[C@@H](CNc1ccc(OC)cc1OC)NC(=O)[C@H](CC(C)(C)F)N[C@@H](c1ccc(Br)cc1)C(F)(F)F` [Compound 6], the IC50 is at most 3.16 nM.

On to `CC[C@@H](CNc1ccc(OCCS(C)(=O)=O)cc1OC)NC(=O)[C@H](CC(C)C)N[C@@H](c1ccc(OC)nc1)C(F)(F)F` [Compound 38], for which the IC50 is 3.16 to 31.6 nM.

On to `CC[C@@H](CNc1ccc(OCc2ccccc2)cc1)NC(=O)[C@H](CC(C)C)N[C@@H](c1ccc(OC)cc1)C(F)(F)F` [Compound 97], for which the IC50 is 3.16 to 31.6 nM.

On to `CC[C@@H](CNc1c(OC)cccc1OC)NC(=O)[C@H](CC(C)(C)F)N[C@@H](c1ccc(Br)cc1)C(F)(F)F` [Compound 15], for which the IC50 is 3.16 to 31.6 nM.

For the compound `CC(C)C[C@H](N[C@@H](c1ccccc1)C(F)(F)F)C(=O)N[C@@H](CNC(=O)OCc1ccccc1)CNc1ccc(N2CCOCC2)cc1` [Compound 104], the IC50 is at most 3.16 nM.

On to `CC[C@@H](CNc1ccc(OCC(F)(F)C(F)F)cc1OC)NC(=O)[C@H](CC(C)(C)F)N[C@@H](c1ccccc1)C(F)(F)F` [Compound 22], for which the IC50 was 3.16 to 31.6 nM.

As for `CC(C)C[C@H](N[C@@H](c1ccccc1)C(F)(F)F)C(=O)N[C@@H](CCCC(=O)OC(C)(C)C)CNc1ccc(N2CCOCC2)cc1` [Compound 91], the IC50 is at most 3.16 nM.

Regarding `CC(C)C[C@H](N[C@@H](c1cccnc1)C(F)(F)F)C(=O)N[C@@H](C)CNc1ccc(N2CCOCC2)cc1` [Compound 74], the IC50 was at most 3.16 nM.

Take `CC[C@@H](CNc1ccc(OCC[S+](C)[O-])cc1OC)NC(=O)[C@H](CC(C)(C)F)N[C@@H](c1ccc(Br)cc1)C(F)(F)F` (stereo partly drawn) [Compound 138-1, (2S)-2-{[(1S)-1-(4-bromophenyl)-2,2,2-trifluoroethyl]amino}-N-{(1S)-1-[({2-methoxy-4-[2-(methylsulfinyl)ethoxy]phenyl}amino)methyl]propyl}-4-fluoro-4-methylpentanamide]: the IC50 is at most 3.16 nM.

`CCOC(=O)c1ccnn1-c1ccc(NC[C@H](CC)NC(=O)[C@H](CC(C)C)N[C@@H](c2ccc(OC)nc2)C(F)(F)F)cc1` [Compound 115]: the IC50 was 31.6 to 10000 nM.

Regarding `CC[C@@H](CNc1ccc(OCC(=O)N2CCOCC2)cc1OC)NC(=O)[C@H](CC(C)(C)F)N[C@@H](c1ccccc1)C(F)(F)F` [Compound 136], the IC50 is at most 3.16 nM.

Regarding `CC[C@@H](CNc1ccc(-n2ccnc2)cc1)NC(=O)[C@H](CC(C)C)N[C@@H](c1ccc(OC)nc1)C(F)(F)F` [Compound 113], the IC50 is 31.6 to 10000 nM.

With `COc1ccc(NC[C@H](CCS(C)(=O)=O)NC(=O)[C@H](CC(C)C)N[C@@H](c2ccccc2)C(F)(F)F)c(OC)c1` [Compound 80], the IC50 is 3.16 to 31.6 nM.

In the case of `CC[C@@H](CNc1ccc(OC)cc1OC)NC(=O)[C@H](CC(C)C)N[C@@H](c1ccc(O)cc1)C(F)(F)F` [Compound 157, (2S)—N-((1S)-1-{[(2,4-dimethoxyphenyl)amino]methyl}propyl)-2-{[(1S)-2,2,2-trifluoro-1-(4-hydroxyphenyl)ethyl]amino}-4-methylpentanamide], the IC50 was 3.16 to 31.6 nM.

In the case of `COc1ccc(NC[C@H](C)NC(=O)[C@H](CC(C)C)N[C@@H](c2ccc(OC)nc2)C(F)(F)F)c(OC)c1` [Compound 79], the IC50 was 3.16 to 31.6 nM.

As to `CC(C)C[C@H](N[C@@H](c1ccccc1)C(F)(F)F)C(=O)N[C@@H](CCCCNC(=O)OCc1ccccc1)CNc1ccc(N2CCOCC2)cc1` [Compound 102], the IC50 was at most 3.16 nM.

Turning to `CC[C@@H](CNc1ccc(OC)cc1OC)NC(=O)[C@H](Cc1ccccc1)N[C@@H](c1ccccc1)C(F)(F)F` [Compound 57], the IC50 was 31.6 to 10000 nM.

Take `CC(C)C[C@H](N[C@@H](c1ccccc1)C(F)(F)F)C(=O)N[C@@H](CCC(=O)OCc1ccccc1)CNc1ccc(N2CCOCC2)cc1` [Compound 68]: the IC50 is at most 3.16 nM.

As to `CC[C@@H](CNc1ccc(N2CCOCC2)cc1)NC(=O)[C@H](CC(C)C)N[C@@H](c1ccc(Cl)cc1)C(F)(F)F` [Compound 34], the IC50 is at most 3.16 nM.

`CC[C@@H](CNc1ccc(N2CCOCC2)cc1)NC(=O)[C@H](CC(C)C)N[C@@H](c1ccc(O)cc1)C(F)(F)F` [Compound 158, (2S)—N-((1S)-1-{[(4-morpholin-4-ylphenyl)amino]methyl}propyl)-2-{[(1S)-2,2,2-trifluoro-1-(4-hydroxyphenyl)ethyl]amino}-4-methylpentanamide]: the IC50 was at most 3.16 nM.

Turning to `COc1ccc(NC[C@H](CCS(C)(=O)=O)NC(=O)[C@H](CC(C)C)N[C@@H](c2ccc(OC)nc2)C(F)(F)F)c(OC)c1` [Compound 84], the IC50 was 31.6 to 10000 nM.

For `CC[C@@H](CNc1ccc(OCC(=O)N2CCCC2)cc1OC)NC(=O)[C@H](CC(C)(C)F)N[C@@H](c1ccccc1)C(F)(F)F` [Compound 135], the IC50 is at most 3.16 nM.

Regarding `CC[C@@H](CNc1ccc(OCCO)cc1OC)NC(=O)[C@H](CC(C)(C)F)N[C@@H](c1ccccc1)C(F)(F)F` [Compound 42], the IC50 is at most 3.16 nM.
